Assay results from paper PMC8867149, “Phosphorylated and Phosphonated Low‐Complexity Protein Segments for Biomimetic Mineralization and Repair of Tooth Enamel” (Advanced Science, 2022).
Non-standard residues stand in square brackets, D forms with d. Residues, ends and D or L forms follow the SMILES beside them. pS = N[C@@H](COP(=O)(O)O)C(=O)O

Biological target: T1, Alkaline phosphatase, calf intestinal (ALP) (Bos taurus, UniProt P19111)
T1 construct: purchased New England BioLabs (printed 'NEW ENGLANK BioLabs Inc.') M0290
Test: Stability of phosphate/phosphonate group in the presence of ALP (HPLC)
Assay type: in vitro ADME
Details: 10 U mL^−1 ALP (calf intestinal), half an hour; peptide assemblies; HPLC read-out
Method: Figure 2 Characterization of LCPSs and their self‐assembly. a) FTIR characterization of different molecular structures among the LCPS peptides with a concentration of 10 mg mL^−1 LCPS assembly solution. b) Negatively stained TEM images showing the self‐assembled structures of LCPS‐OH, LCPS‐OP, and LCPS‐CP at pH 3.0, 5.0, 7.0, and 9.0. c) Zeta potential values of LCPSs at pH 7. The data are the means ± SD (n = 3 repeats per group). d) CD spectra of LCPS‐OH, LCPS‐OP, and LCPS‐CP assembly solutions (10 mg mL^−1) at pH 7. Self‐assembly of e) LCPS‐OP and f) LCPS‐CP after the addition of ALP. g) HPLC charts chromatograms of LCPS solutions with or without the addition of ALP. The LCPSs were incubated with 10 U mL^−1 ALP for half an hour.
The aggregated peptides were mineralized in the neutral condition directly as mentioned above, in the presence of 10 U mL^−1 ALP (calf‐intestinal). After assembling, 10 µL of the peptide assembly solution was diluted with equal volume of ddH2O. Then, 100 µL of the 1.35 × 10^−3 M CaCl2 solution containing 10 U mL^−1 ALP was added into the peptide assembly solution, and the resultant mixed solution was vibrated for 1 h to ensure the binding of calcium ions with the peptide aggregates. Next, 100 µL of the 0.81 × 10^−3 M K2HPO4 solution containing 10 U mL^−1 ALP was added dropwise for about 1 h while vibrating. […]

T1 sequence (P19111 20-533): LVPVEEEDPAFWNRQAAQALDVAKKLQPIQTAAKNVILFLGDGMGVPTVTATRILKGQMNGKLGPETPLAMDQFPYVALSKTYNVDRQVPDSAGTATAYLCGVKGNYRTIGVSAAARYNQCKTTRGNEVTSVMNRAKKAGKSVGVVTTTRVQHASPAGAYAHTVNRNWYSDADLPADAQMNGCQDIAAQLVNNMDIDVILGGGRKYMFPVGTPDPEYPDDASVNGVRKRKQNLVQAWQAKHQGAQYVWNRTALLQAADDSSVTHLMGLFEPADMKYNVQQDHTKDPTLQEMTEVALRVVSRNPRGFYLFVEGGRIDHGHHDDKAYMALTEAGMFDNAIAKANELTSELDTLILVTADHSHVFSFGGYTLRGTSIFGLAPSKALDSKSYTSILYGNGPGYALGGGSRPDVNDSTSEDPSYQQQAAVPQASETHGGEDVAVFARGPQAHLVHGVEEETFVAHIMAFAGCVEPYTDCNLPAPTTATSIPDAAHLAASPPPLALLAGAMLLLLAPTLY

N[C@@H](CO)C(=O)N[C@@H](Cc1ccc(O)cc1)C(=O)N[C@@H](COP(=O)(O)O)C(=O)NCC(=O)N[C@@H](Cc1ccc(O)cc1)C(=O)N[C@@H](CO)C(=O)O [LCPS‐OP] (H-SY[pS]GYS-OH)
stability of phosphate/phosphonate group in the presence of ALP: completely hydrolyzed
